Several values for one entry are separate records, joined by “and”; a condition that tells them apart may be missing. Identical values can stand only once.
What was measured:
[1] = Pharmacokinetics after oral administration of CK polymorphs in rats (20 mg/kg); assay type: in vivo, Sprague-Dawley rats; settings: for Fabs (absolute bioavailability): p.o. 20 mg/kg vs i.v. 10 mg/kg, dose-adjusted AUC ratio
[2] = DSC thermal analysis of CK polymorphs; assay type: physicochemical; settings: 20 K/min from 20 to 400 °C, dry nitrogen flow
Method: DSC measurements were performed on a DSC204 Phoenix calorimeter (NETZSCH, Selb, Germany) with a heating rate of 20 K/min from 20 to 400 °C. The dry nitrogen flow was about 50 mL/min. Data were analyzed using NETZSCH analysis software.

[3] = Pharmacokinetics after oral administration of CK polymorphs in rats (20 mg/kg); assay type: in vivo, Sprague-Dawley rats; settings: p.o. 20 mg/kg, individual rats 1-3
Method: All samples were analyzed with a triple quadrupole LC-MS/MS (API 4000 LC-MS/MS, AB Sciex, Framingham, MA, USA) coupled with an Agilent 1200 HPLC system (Agilent Technologies, Palo Alto, CA, USA). The MS was equipped with an electrospray system (ESI). The N2 gas temperature and ion-spray voltage were set to 550 °C and 4.5 kV, respectively. CK was measured in multiple reaction monitoring (MRM) mode using a negative electrospray ionization source at m/z 667.4 → 621.2 for CK (CID 25.6 v) and m/z 271.2 → 228.8 for internal standard (IS, (E)-5-(4-fluorostyryl)-2-isopropylbenzene-1,3-diol, Welichem Biotech Inc., Wayburne Drive Burnaby, BC, Canada) (CID 28.3 v) with a dwell time of 0.1 s.
Rats were divided randomly into 5 groups of six animals each (sex in half) and given 7 days to acclimatize to the facility before the experiments began. The four forms of CK were suspended in 0.5% sodium carboxymethyl cellulose (CMC-Na) solution and orally administered to rats at a dose of 20 mg/kg. A CK solution in a mixed solvent of dimethyl sulfoxide (DMSO)/castor oil/physiologic saline (3:5:92, v/v) was intravenously administered to the remaining group via the tail vein at a dose of 10 mg/kg. Blood samples were collected by retro-orbital puncture at the following times: 0.167, 0.333, 0.667, 1, 2, 3, 4, 6, 9, 12, and 24 h for the oral administration, and at 0.0083, 0.05, 0.133, 0.25, 0.5, 1, 2, 4, 6, and 9 h for the intravenous administration. Plasma samples were obtained by centrifuging a heparinized blood tube at 4000 rpm for 5 min and then stored at −70 °C until analysis.
The procedure for drug extraction from plasma samples was as follows: 0.2 mL acetonitrile, 0.2 mL plasma sample, and 10 μL IS (1 µg/mL) were added into a 1.5 mL Eppendorf-type tube. This mixture was vortexed for 1 min and then treated with 0.8 mL of methyl tert-butyl ether (MTBE) to precipitate the plasma proteins. After a mechanical vortex for 1 min and subsequent centrifugation (4000 rpm, 5 min), 0.8 mL of the supernatant was transferred and blow-dried with N2 at 40 °C in a water bath. Finally, the residue was dissolved in 120 μL of mobile phase, and then 10 μL was subjected to HPLC for analysis. […] Intra- and inter-day precision and accuracy never exceeded 15% by analyzing six replicate samples.
The CK pharmacokinetic parameters in rats, including the area under the curve (AUC(0–t) and AUC(0–∞)), mean residence time (MRT(0–t) and MRT(0–∞)), maximum concentration (Cmax), time to maximum concentration (Tmax), half-life (t1/2), apparent distribution volume (V), and total plasma clearance (CL), were derived from plasma concentration-time curves by using non-compartmental analysis (NCA) with DAS 2.0 software (Drug And Statistics, Mathematical Pharmacology Professional Committee of China, Shanghai, China). The absolute bioavailability (Fabs) was calculated from the dose-adjusted ratio of AUCp.o. to AUCi.v.. One-way analysis of variance (ANOVA) by SPSS 11.5 (SPSS Inc., Chicago, IL, USA) was conducted to compare the primary PK parameters.

[4] = system: carrageenan-induced acute paw inflammation; assay: Paw swelling test induced by carrageenan in rats; assay type: in vivo, Sprague-Dawley rats; parameters: paw volume: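 right hind paw volume measured with a plethysmometer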; settings: for paw volume / paw edema: mean±SD of 6 rats; for edema inhibition: versus model group
Method: Rats were divided into 11 groups of six animals each (sex in half): the normal group, the model group, indomethacin group (1 mg/kg), and form I, II, III, IV groups (each form set 10 mg/kg and 20 mg/kg groups, respectively). Indomethacin and CK were ground and suspended in 0.5% CMC-Na solution. […] The same volume of saline was injected into the normal group. […] Paw edema and inhibitory rate were calculated as the following formula, and the differences among groups were compared with the t-test. Paw edema (%) = (Vn − V0)/V0 × 100%. Vn: paw volume at different time intervals after carrageenan injection. V0: paw volume before carrageenan injection. Inhibitory rate (%) = (Em − Ee)/Em × 100%. Em: paw edema of the model group. Ee: paw edema of the experimental group.

[5] = female rats, p.o. 20 mg/kg, mean ± SD (n = 3), 20 mg/kg
[6] = male rats, p.o. 20 mg/kg, mean ± SD (n = 3), 20 mg/kg
[7] = 10 mg/kg p.o. qd 3 days, 3h after carrageenan, listed as From II
[8] = 10 mg/kg p.o. qd 3 days, 4h after carrageenan, listed as From II
[9] = 10 mg/kg p.o. qd 3 days, 5h after carrageenan, listed as From II
[10] = 10 mg/kg p.o. qd 3 days, 6h after carrageenan, listed as From II
[11] = 20 mg/kg p.o. qd 3 days, 3h after carrageenan, listed as From II
[12] = 20 mg/kg p.o. qd 3 days, 4h after carrageenan
[13] = 20 mg/kg p.o. qd 3 days, 4h after carrageenan, listed as From II
[14] = 20 mg/kg p.o. qd 3 days, 5h after carrageenan, listed as From II
[15] = 20 mg/kg p.o. qd 3 days, 6h after carrageenan, listed as From II

Question: With `CC(C)=CCCC(C)(OC1OC(CO)C(O)C(O)C1O)C1CCC2(C)C1C(O)CC1C3(C)CCC(O)C(C)(C)C3CCC12C` [Form II, 20-O-β-D-glucopyranosyl-20(S)-protopanaxadiol] as the compound, how does the “maximum differences of the average Cmax and AUC(0–∞) values, form II compared to form IV” value ([1]; female groups, p.o. 20 mg/kg) read?
Answer: 2.1 fold

Question: What about the “Fabs (absolute bioavailability)” value ([1]; female rats) of the same compound?
Answer: 7.87%

Question: And the t1/2z ([1]; female rats, p.o. 20 mg/kg, individual rats 1-3, 20 mg/kg)?
Answer: 3.96 h and 2.99 h and 2.49 h

Question: And the “AUC(0–t)” value [1, 5]?
Answer: 2447.2 ± 1828.5 ng·h/mL

Question: What about the “AUC(0–∞)” value [1, 5] of the same compound?
Answer: 2551.23 ± 1967.99 ng·h/mL and 2551.2 ± 1968.0 ng·h/mL

Question: And the CLz/F [1, 5]?
Answer: 180 ± 96.5 mL/min/kg

Question: And the Cmax [1, 5]?
Answer: 459.59 ± 289.63 ng/mL and 459.6 ± 289.6 ng/mL

Question: And the Vz/F [1, 5]?
Answer: 45.3 ± 20.0 L/kg

Question: What about the t1/2z [1, 5] of the same compound?
Answer: 3.15 ± 0.75 h and 3.2 ± 0.75 h

Question: What about the AUC(0-t) ([1]; female, Sprague-Dawley, rat, plasma, po, 20 mg/kg, female rats, p.o. 20 mg/kg, mean ± SD (n = 3)) of the same compound?
Answer: 2450 ± 1830 ng·h/mL

Question: And the CL/F ([1]; female, Sprague-Dawley, rat, plasma, po, 20 mg/kg, female rats, p.o. 20 mg/kg, mean ± SD (n = 3), read-out: CLz/F (converted))?
Answer: 180 mL/min/kg

Question: And the “maximum differences of the average Cmax and AUC(0–∞) values, form II compared to form IV” value ([1]; male groups, p.o. 20 mg/kg)?
Answer: 1.6 fold

Question: What about the “Fabs (absolute bioavailability)” value ([1]; male rats) of the same compound?
Answer: 4.07%

Question: And the Vz/F ([1]; male rats, p.o. 20 mg/kg, individual rats 1-3, 20 mg/kg)?
Answer: 102.18 L/kg and 80.31 L/kg and 39.93 L/kg

Question: And the “AUC(0–t)” value [1, 6]?
Answer: 1191.06 ± 471.90 ng·h/mL and 1191.1 ± 471.90 ng·h/mL

Question: What about the “AUC(0–∞)” value [1, 6] of the same compound?
Answer: 1235.2 ± 474.45 ng·h/mL

Question: And the CLz/F [1, 6]?
Answer: 299.5 ± 118 mL/min/kg and 300 ± 118 mL/min/kg

Question: What about the Cmax [1, 6] of the same compound?
Answer: 232.33 ± 68.97 ng/mL and 232.3 ± 68.97 ng/mL

Question: And the Vz/F [1, 6]?
Answer: 74.14 ± 31.58 L/kg and 74.1 ± 31.6 L/kg

Question: What about the t1/2z [1, 6] of the same compound?
Answer: 2.93 ± 1.14 h and 2.9 ± 1.1 h

Question: And the AUC(0-inf) ([1]; male, Sprague-Dawley, rat, plasma, po, 20 mg/kg, male rats, p.o. 20 mg/kg, mean ± SD (n = 3))?
Answer: 1240 ± 474 ng·h/mL

Question: What about the “DSC onset of the decomposition endotherm (thermodynamical stability)” value [2] of the same compound?
Answer: 263.1 °C

Question: And the “AUC(0-t)” value ([3]; female rats)?
Answer: 4557.73 ng·h/mL and 1338.42 ng·h/mL and 1445.59 ng·h/mL

Question: What about the “AUC(0-∞)” value ([3]; female rats) of the same compound?
Answer: 4823.11 ng·h/mL and 1371.40 ng·h/mL and 1459.17 ng·h/mL

Question: And the CLz/F ([3]; female rats)?
Answer: 69.2 mL/min/kg and 243 mL/min/kg and 228.5 mL/min/kg

Question: And the Cmax ([3]; female rats)?
Answer: 777.00 ng/mL and 209.65 ng/mL and 392.12 ng/mL

Question: And the Vz/F ([3]; female rats)?
Answer: 23.70 L/kg and 62.95 L/kg and 49.26 L/kg

Question: And the “AUC(0-t)” value ([3]; male rats)?
Answer: 1095.34 ng·h/mL and 774.36 ng·h/mL and 1703.47 ng·h/mL

Question: And the “AUC(0-∞)” value ([3]; male rats)?
Answer: 1198.51 ng·h/mL and 780.14 ng·h/mL and 1726.92 ng·h/mL

Question: And the CLz/F ([3]; male rats)?
Answer: 278.2 mL/min/kg and 427.3 mL/min/kg and 193 mL/min/kg

Question: What about the Cmax ([3]; male rats) of the same compound?
Answer: 187.99 ng/mL and 197.22 ng/mL and 311.79 ng/mL

Question: And the t1/2z ([3]; male rats)?
Answer: 2.17 h and 2.39 h and 4.24 h

Question: And the paw volume ([4]; 10 mg/kg p.o. qd 3 days, 0h (before carrageenan), listed as From II)?
Answer: 1.57±0.12

Question: What about the paw edema [4, 7] of the same compound?
Answer: 55.25±18.20%

Question: What about the paw volume [4, 7] of the same compound?
Answer: 2.41±0.16

Question: And the edema inhibition [4, 7]?
Answer: 14.03%

Question: And the paw edema [4, 8]?
Answer: 47.34±11.94%

Question: What about the paw volume [4, 8] of the same compound?
Answer: 2.30±0.14

Question: What about the edema inhibition [4, 8] of the same compound?
Answer: 24.09%

Question: And the paw edema [4, 9]?
Answer: 33.73±13.72%

Question: What about the paw volume [4, 9] of the same compound?
Answer: 2.08±0.12

Question: What about the edema inhibition [4, 9] of the same compound?
Answer: 34.84%

Question: And the paw edema [4, 10]?
Answer: 27.25±10.94%

Question: What about the paw volume [4, 10] of the same compound?
Answer: 1.98±0.08

Question: What about the edema inhibition [4, 10] of the same compound?
Answer: 30.70%

Question: What about the paw volume ([4]; 20 mg/kg p.o. qd 3 days, 0h (before carrageenan), listed as From II) of the same compound?
Answer: 1.65±0.14

Question: And the paw edema [4, 11]?
Answer: 45.81±8.11%

Question: And the paw volume [4, 11]?
Answer: 2.40±0.15

Question: What about the edema inhibition [4, 11] of the same compound?
Answer: 28.72%

Question: And the paw edema [4, 12]?
Answer: 39.7 ± 6.4%

Question: What about the paw edema [4, 13] of the same compound?
Answer: 39.71±6.48%

Question: And the paw volume [4, 13]?
Answer: 2.30±0.14

Question: And the edema inhibition [4, 12]?
Answer: 36.3%

Question: What about the edema inhibition [4, 13] of the same compound?
Answer: 36.33%

Question: What about the paw edema [4, 14] of the same compound?
Answer: 29.62±8.06%

Question: What about the paw volume [4, 14] of the same compound?
Answer: 2.13±0.15

Question: And the edema inhibition ([4]; 20 mg/kg p.o. qd 3 days, 5h after carrageenan)?
Answer: 42.7%

Question: What about the edema inhibition [4, 14] of the same compound?
Answer: 42.77%

Question: What about the paw edema [4, 15] of the same compound?
Answer: 23.59±8.59%

Question: And the paw volume [4, 15]?
Answer: 2.03±0.14

Question: What about the edema inhibition ([4]; 20 mg/kg p.o. qd 3 days, 6h after carrageenan) of the same compound?
Answer: 40.0%

Question: And the edema inhibition [4, 15]?
Answer: 40.00%
